One block for each compound: values may come before it.
How the values were obtained:
[1] = test system: ORL1/alpha adrenergic receptor (chimeric); experiment: mt-AEQ photon emission, CHO cells expressing chimeric ORL1/alpha adrenergic receptor; assay type: cell-based; conditions: CHO mt-AEQ cells with chimeric receptor, nociceptine 1 μM; from less than 20 before stimulation
Description: (§2) The cellular lines thus engineered were then both transfected with the vector containing the mt-AEQ probe by means of the calcium phosphate technique.
(§3) 36 hours after the transfection, the cells, cultivated on flasks for cellular cultures (75 cm^2), were detached from the bottom by trypsinization. The cellular suspension was then transferred to a Falcon tube (of 15 or 50 ml) and subjected to centrifugation at 1200 rpm in a cell centrifuge at 20° C. and finally the cellular precipitate was re-suspended in KRB/Ca^2+ (Krebs-Ringer modified buffer: 125 mM NaCl, 5 mM KCl, 1 mM CaCl2, 1 mM Na3PO4, 1 mM MgSO4, 5.5 mM glucose, 20 mM HEPES, pH 7.4, 37° C.).
(§4) The prosthetic group celentherazine was added at a final concentration of 5 μM to the suspension of engineered cells expressing the mt-AEQ probe.
(§5) 50 μl of suspension containing transfected cells (corresponding to about 100,000 cells) were planted in each well of the plate. The cells were left to adhere for a time varying from 1 to 2 hours keeping them in the dark, due to the photo-instability of celentherazine.
(§6) At the end of the incubation time, the various molecules to be tested were added to each well and the plate with the treated cells was then put in direct contact with a photo-multiplier which measures the emission of photons on the part of aequorin. […]

[2] = molecular target: endogenous receptor for histamine Hi (Homo sapiens, UniProt P35367); conditions: HeLa mt-AEQ cells, histamine 100 μM
Chain of endogenous receptor for histamine Hi (P35367 whole entry): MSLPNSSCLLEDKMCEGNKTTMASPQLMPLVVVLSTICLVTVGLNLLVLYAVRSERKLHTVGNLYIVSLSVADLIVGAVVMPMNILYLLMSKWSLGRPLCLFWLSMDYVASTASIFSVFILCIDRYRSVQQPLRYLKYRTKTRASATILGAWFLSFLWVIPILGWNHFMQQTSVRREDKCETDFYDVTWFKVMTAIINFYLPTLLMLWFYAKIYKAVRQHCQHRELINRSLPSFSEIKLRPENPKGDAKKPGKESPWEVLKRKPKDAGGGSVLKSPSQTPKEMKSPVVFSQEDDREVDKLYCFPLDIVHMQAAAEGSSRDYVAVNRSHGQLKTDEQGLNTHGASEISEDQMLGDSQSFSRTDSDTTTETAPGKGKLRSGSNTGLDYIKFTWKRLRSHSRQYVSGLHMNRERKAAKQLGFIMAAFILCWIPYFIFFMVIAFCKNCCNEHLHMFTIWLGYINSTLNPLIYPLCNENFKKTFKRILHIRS
Description: as §2, §3, §4, §5, §6

[3] = test system: PKC-aequorin (PKC-AEQ) probe: PKC beta, delta, epsilon, zeta; experiment: Translocation of PKC-aequorin probe to the plasmatic membrane, HeLa cells, photon emission; assay type: cell-based
Text: In the specific example, the results presented relate to the use of the PKC beta-aequorin (PCKβ-AEQ), PKC delta-aequorin (PCKδ-AEQ), PKC epsilon-aequorin (PCKε-AEQ), PKC zeta-aequorin (PCKζ-AEQ) probes.
These probes were obtained by inserting, in a eukaryotic expression vector (pcDNA3; 5.4 kb), the sequence encoding the various PKC isoforms condensed in frame with the sequence encoding aequorin described above.
The cells cultivated on cellular culture flasks (75 cm^2) were transfected with a vector containing the chimeric probe produced, using the most suitable transfection techniques for the cellular line in question. As the HeLa stabilized cellular line was used as experimental model, the calcium phosphate technique was adopted as transfection method which guarantees a high percentage of positive cells for this cellular line.
(§1) 36 hours after transfection, the cells contained in the flask were detached from the bottom by trypsinization.
The prosthetic group celentherazine was added to the suspension of cells expressing the PKC-aequorin probe at a final concentration of 5 μM. […]

[4] = test system: PKC beta-aequorin (PKCβ-AEQ) probe; experiment: Translocation of PKC beta-aequorin probe under hyperglycaemia conditions, HUVEC cells; assay type: cell-based; conditions: 10 mM glucose plus metformin 20 μM
Text: A beta-aequorin PKC probe, already described in example 1, was used, with which HUVEC endothelial cells were transfected. The cells cultivated on cellular culture flasks (75 cm^2) were transfected with a vector containing the chimeric probe produced, using the most suitable transfection techniques for the cellular line in question. Endothelial cells of stabilized umbilical cord veins, called HUVEC, were used as the experimental model, which were transfected with the PKC beta-aequorin probe, using lipofectamine which guarantees a high percentage of positive cells for this cellular line. 36 hours after transfection, the cells contained in the flask were detached from the bottom by trypsinization. […] The prosthetic group celentherazine at a final concentration of 5 μM was added to the cell suspension expressing the PKC beta-aequorin probe. […] The example provided was carried out on three parallel batches of cells: a) HUVEC cells expressing the PKC beta-aequorin (PKCβ-AEQ) probe, maintained under control conditions (absence of glucose) (dotted line). b) HUVEC cells expressing the PKC beta-aequorin (PKCβ-AEQ) probe, maintained under hyperglycaemia conditions (10 mM of glucose) (dark, thick line). c) HUVEC cells expressing the PKC beta-aequorin (PKCβ-AEQ) probe, maintained under hyperglycaemia conditions (10 mM of glucose) treated with a well-known anti-diabetic agent, metformin (20 μM) (dark, thin line).

beta adrenergic receptor = experiment: mt-AEQ photon emission, control HeLa cells expressing beta adrenergic receptor; assay type: cell-based; conditions: control HeLa cells expressing a beta adrenergic receptor, stimulated with isoproterenol
Description: as §3, §4, §5
(§7) At the end of the incubation time, the various molecules to be tested were added to each well and the plate with the treated cells was then put in direct contact with a photo-multiplier which measures the emission of photons on the part of aequorin.
HeLa cells expressing a beta adrenergic receptor and stimulated with isoproterenol for inducing the stimulation of said receptor, were used as control (dotted line).

[5] = test system: beta/alpha adrenergic receptor (chimeric); experiment: mt-AEQ photon emission, HeLa cells expressing chimeric beta/alpha adrenergic receptor; assay type: cell-based; conditions: HeLa mt-AEQ cells with chimeric receptor, isoproterenol 100 μM; from less than 20 before stimulation
Description: as §2, §3, §4, §5, §6

[6] = test system: p66shc-aequorin (p66shc-AEQ) probe; experiment: Translocation of p66shc-aequorin probe to the plasmatic membrane, A431 cells; assay type: cell-based
Text: This probe was obtained by inserting, in a eukaryotic expression vector (pcDNA3; 5.4 kb), the sequence encoding the p66shc protein condensed in frame with the sequence encoding aequorin.
The cells cultivated on cellular culture flasks (75 cm^2) were transfected with a vector containing the chimeric probe produced, using the most suitable transfection techniques for the cellular line in question. The stabilized transfected cellular line A431 was adopted as experimental model, using the “Effectene reagent” procedure (Qiagen, Germany), which guarantees a high percentage of positive cells for this cellular line.
24 hours after the transfection, the cells were maintained in a DMEM culture medium, without serum.
as §1
The prosthetic group celentherazine was added to the suspension of cells expressing the p66shc-aequorin probe, at a final concentration of 5 μM. […]

[7] = test system: endogenous receptor for ATP P2Y; experiment: mt-AEQ photon emission, CHO cells, endogenous ATP receptor; assay type: cell-based; conditions: ATP 100 μM
Description: as §3, §4, §5, §7

[8] = from less than 20 before stimulation

Compound: Nociceptine
emission of photons on the part of aequorin [1]: over 80,000 photons emitted per second

concentration of calcium in the mitochondrial matrix [2]: considerable and transient increase
emission of photons on the part of aequorin [2, 8]: over 80,000 photons emitted per second
Compound: NCCc1c[nH]cn1 [histamine, Histamine]

Compound: CCCCCCCCCCCCCC(=O)O[C@@H]1[C@@H](C)[C@@]2(O)[C@@H](C=C(CO)C[C@]3(O)C(=O)C(C)=C[C@@H]23)[C@@H]2C(C)(C)[C@]12OC(C)=O [PMA]
emission of photons ([3]; HeLa PKC-AEQ cells, PMA 1 μM, after addition of external calcium): > 100,000 cps
emission of photons ([3]; HeLa cells, absence of external calcium): lower than 100 cps

Compound: CN(C)C(=N)N=C(N)N [metformin]
emission of photons ([4]; HUVEC PKCβ-AEQ cells, after addition of external calcium): lower than 40,000 cps
inhibition of the PKCβ-AEQ probe translocation (grade) ([4]; HUVEC): good inhibition
translocation induced by glucose under hyperglycaemia conditions ([4]; HUVEC): inhibits the translocation

Compound: CC(C)NCC(O)c1ccc(O)c(O)c1 (centres unmarked) [isoproterenol, Isoproterenol]
increase in cps (beta adrenergic receptor): does not induce any increase in cps
emission of photons on the part of aequorin [5]: over 80,000 photons emitted per second

Compound: EGF: epidermic growth factor, maximal activator of p66shc translocation
emission of photons ([6]; A431 cells, absence of external calcium): lower than 100 cps
emission of photons ([6]; A431 p66shc-AEQ cells, EGF 100 ng/ml, after addition of external calcium): > 100,000 cps

Compound: Nc1ncnc2c1ncn2[C@@H]1O[C@H](COP(=O)(O)OP(=O)(O)OP(=O)(O)O)[C@@H](O)[C@H]1O [ATP]
concentration of calcium in the mitochondrial matrix [7]: considerable and transient increase
emission of photons on the part of aequorin [7, 8]: over 80,000 photons emitted per second
